Measured values reported in ChEMBL document CHEMBL5500372, “Novel natural osthole-inspired amphiphiles as membrane targeting antibacterials against methicillin-resistant Staphylococcus aureus (MRSA)” (Eur J Med Chem, 2024).
Activity calls are given as the source filed them. The rule behind the calls is not given here.

Experiments:
[1] = Toxicity in female KM mouse skin abscess model infected with methicillin-resistant Staphylococcus aureus clinical isolate 16 assessed as histological abnormalities in liver at 5 to 10 mg/kg, sc measured after 24 hrs by H and E staining based analysis; type: organism-based; settings: in vivo, dose 5-10 mg/kg
Staphylococcus aureus [2] = experiment: Antibacterial activity against methicillin-resistant Staphylococcus aureus clinical isolate 16 measured after 18 hrs by CLSI based broth microdilution method; type: functional
Staphylococcus aureus [3] = experiment: Antibacterial activity against Staphylococcus aureus ATCC 29213 at sub-MIC concentration measured after 20 passages by CLSI micro broth dilution method; type: functional, organism-based
[4] = Toxicity in female KM mouse assessed as animal death at 80 mg/kg, sc measured after 24 hrs; type: organism-based; settings: in vivo
[5] = Toxicity in female KM mouse assessed as effect on histopathological abnormalities in back skin at 20 mg/kg, sc measured after 24 hrs by H and E staining based analysis; type: organism-based; settings: in vivo
[6] = Toxicity in female KM mouse assessed as effect on platelet count at upto 20 mg/kg, sc measured after 24 hrs; type: organism-based; settings: in vivo
[7] = Toxicity in female KM mouse assessed as adverse reaction in skin at 20 mg/kg, sc measured after 24 hrs; type: organism-based; settings: in vivo
Cell membrane [8] = experiment: Disruption of cell membrane in methicillin-resistant Staphylococcus aureus clinical isolate 16 assessed as fold increase in intracellular ROS level at 64 ug/ml incubated for 50 mins by DCFH-DA staining based fluorescence assay; type: cell membranes; settings: dose 64.0 µg/ml
Escherichia coli = experiment: Antibacterial activity against Escherichia coli ATCC 25922 measured after 18 hrs by CLSI based broth microdilution method; type: functional
[9] = Stability in 50% sheep blood plasma measured after 6 hrs; type: ADME, cell-free, Ovis aries
Staphylococcus aureus [10] = experiment: Antibacterial activity against methicillin-resistant Staphylococcus aureus clinical isolate 16 infected in female KM mouse skin abscess model assessed as effect on skin abscess at 10 mg/kg, sc measured after 24 hrs; type: functional, organism-based
[11] = Toxicity in female KM mouse assessed as effect on liver at 20 mg/kg, sc measured after 24 hrs by H and E staining based analysis; type: organism-based; settings: in vivo
[12] = Toxicity in female KM mouse skin abscess model infected with methicillin-resistant Staphylococcus aureus clinical isolate 16 assessed as histological abnormalities in lung at 5 to 10 mg/kg, sc measured after 24 hrs by H and E staining based analysis; type: organism-based; settings: in vivo, dose 5-10 mg/kg
Staphylococcus aureus [13] = experiment: Antibacterial activity against methicillin-resistant Staphylococcus aureus clinical isolate 11 measured after 18 hrs by CLSI based broth microdilution method; type: functional
[14] = Toxicity in female KM mouse skin abscess model infected with methicillin-resistant Staphylococcus aureus clinical isolate 16 assessed as effect on lung at 5 to 10 mg/kg, sc measured after 24 hrs by H and E staining based analysis; type: organism-based; settings: in vivo, dose 5-10 mg/kg
[15] = Toxicity in female KM mouse assessed as effect on histopathological abnormalities in kidney at 20 mg/kg, sc measured after 24 hrs by H and E staining based analysis; type: organism-based; settings: in vivo
Cell membrane [16] = experiment: Disruption of cell membrane in methicillin-resistant Staphylococcus aureus clinical isolate 16 assessed as increase in DNA leakage incubated for 4 hrs by microspectrophotometric analysis; type: cell membranes; settings: dose <= 8.0 µg/ml
Cell membrane [17] = experiment: Induction of cell membrane disruption in methicillin-resistant Staphylococcus aureus clinical isolate 16 assessed as intact cells (Q3 region) at 8 ug/ml measured after 2 hrs by SYTO-9 and PI staining based flow cytometry analysis (reference value: 96.0%); type: cell membranes; settings: dose 8.0 µg/ml
Staphylococcus aureus [18] = experiment: Antibacterial activity against methicillin-resistant Staphylococcus aureus clinical isolate 16 infected in female KM mouse skin abscess model assessed as reduction in bacterial load at 10 mg/kg, sc measured after 24 hrs relative to control; type: functional; set-up: scale not given: the % may be the effect or the level left
Staphylococcus aureus [19] = experiment: Antibacterial activity against methicillin-resistant Staphylococcus aureus clinical isolate 13 measured after 18 hrs by CLSI based broth microdilution method; type: functional
[20] = Toxicity in female KM mouse assessed as effect on CREA at upto 20 mg/kg, sc measured after 24 hrs by biochemical test; type: organism-based; settings: in vivo
[21] = Toxicity in female KM mouse assessed as effect on white blood cell at upto 20 mg/kg, sc measured after 24 hrs; type: organism-based; settings: in vivo
[22] = Toxicity in female KM mouse assessed as effect on hematocrit in blood at upto 20 mg/kg, sc measured after 24 hrs; type: organism-based; settings: in vivo
Staphylococcus aureus [23] = experiment: Antibacterial activity against methicillin-resistant Staphylococcus aureus clinical isolate 16 infected in female KM mouse skin abscess model assessed as reduction in TNF-alpha level at 5 to 10 mg/kg, sc measured after 24 hrs by ELISA method; type: functional, organism-based; settings: dose 5-10 mg/kg
Cell membrane [24] = experiment: Induction of cell membrane disruption in methicillin-resistant Staphylococcus aureus clinical isolate 16 assessed as intact cells (Q3 region) at 32 ug/ml measured after 2 hrs by SYTO-9 and PI staining based flow cytometry analysis (reference value: 96.0%); type: cell membranes; settings: dose 32.0 µg/ml
Staphylococcus aureus [25] = experiment: Antibacterial activity against methicillin-resistant Staphylococcus aureus clinical isolate 16 infected in female KM mouse skin abscess model assessed as healthy skin on back at 10 mg/kg, sc measured after 24 hrs; type: functional, organism-based
[26] = Toxicity in female KM mouse assessed as effect on histopathological abnormalities in spleen at 20 mg/kg, sc measured after 24 hrs by H and E staining based analysis; type: organism-based; settings: in vivo

## CCCCCCNC(=O)C[N+](C)(C)CCCCCOc1ccc2ccc(=O)oc2c1CC=C(C)C.[Br-]
[1]
  Activity: Non-Toxic
Staphylococcus aureus [2]
  MIC: 1 µg/mL
Staphylococcus aureus [3]
  Activity: inactive
[4]
  Activity: Non-Toxic
[5]
  Activity: Non-Toxic
[6]
  Activity: Non-Toxic
[7]
  Activity: Non-Toxic
Cell membrane [8]
  fold change (FC): 7
Escherichia coli
  MIC: 32 µg/mL
[9]
  Stability: Stable
Staphylococcus aureus [10]
  Activity: inactive
[11]
  Activity: Non-Toxic
[12]
  Activity: Non-Toxic
Staphylococcus aureus [13]
  MIC: 1 µg/mL
[14]
  Activity: Non-Toxic
[15]
  Activity: Non-Toxic
Cell membrane [16]
  Activity: Dose-Dependent Effect
Cell membrane [17]
  Activity: 45.3%
Staphylococcus aureus [18]
  Activity: 99.998%
Staphylococcus aureus [19]
  MIC: 2 µg/mL
[20]
  Activity: Non-Toxic
[21]
  Activity: Non-Toxic
[22]
  Activity: Non-Toxic
Staphylococcus aureus [23]
  Activity: Active
Cell membrane [24]
  Activity: 0.05%
Staphylococcus aureus [25]
  Activity: Active
[26]
  Activity: Non-Toxic
